Among the data in patent US20260085073A1, “PYRAZOLYLCARBOXAMIDE COMPOUNDS AND THEIR USE IN THERAPY” (Hotspot Therapeutics, Inc., priority 2022, published 2026) are IC50 values, retold here.

The target in the assay is T1, MALT1 (Homo sapiens, UniProt Q9UDY8).
T1 construct: Avi-tagged FL MALT-1 (Pharmaron, stored at −70° C.); Avi-tag
T1 sequence (Q9UDY8 1-824): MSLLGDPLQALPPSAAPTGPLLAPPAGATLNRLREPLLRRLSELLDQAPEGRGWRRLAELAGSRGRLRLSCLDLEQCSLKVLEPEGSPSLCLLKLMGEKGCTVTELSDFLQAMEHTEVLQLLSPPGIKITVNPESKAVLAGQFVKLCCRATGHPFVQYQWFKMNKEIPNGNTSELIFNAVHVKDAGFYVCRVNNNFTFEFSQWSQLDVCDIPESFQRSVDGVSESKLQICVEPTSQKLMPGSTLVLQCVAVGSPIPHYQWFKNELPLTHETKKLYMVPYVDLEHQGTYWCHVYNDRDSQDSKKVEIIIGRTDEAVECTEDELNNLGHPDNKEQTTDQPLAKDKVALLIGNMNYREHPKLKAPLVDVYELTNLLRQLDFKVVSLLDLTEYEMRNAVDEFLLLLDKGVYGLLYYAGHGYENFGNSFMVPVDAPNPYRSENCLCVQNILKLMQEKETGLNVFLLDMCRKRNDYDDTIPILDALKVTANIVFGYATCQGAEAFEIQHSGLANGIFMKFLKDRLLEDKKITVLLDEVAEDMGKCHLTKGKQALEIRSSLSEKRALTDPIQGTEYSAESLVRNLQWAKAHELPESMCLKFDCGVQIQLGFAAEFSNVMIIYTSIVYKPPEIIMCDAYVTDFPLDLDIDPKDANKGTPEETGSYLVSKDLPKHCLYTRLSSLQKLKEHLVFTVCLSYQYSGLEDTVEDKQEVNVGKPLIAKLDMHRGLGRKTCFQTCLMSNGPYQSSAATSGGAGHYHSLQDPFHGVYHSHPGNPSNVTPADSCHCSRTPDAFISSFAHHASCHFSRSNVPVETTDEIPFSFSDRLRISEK
The experiment in a line: MALT1 inhibition assay (MALT-1 Fluorogenic Peptide Cleavage Assay, Ac-LRSR-AMC substrate). It counts as biochemical. The following applies: Avi-tagged FL MALT-1, 30 min pre-incubation, 90 min reaction at room temperature, fluorescence intensity. A digest of the protocol:
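Full-length Avi-tagged MALT1 pre-incubated 30 min at room temperature with compounds (2% DMSO final) in HEPES pH 6.89, sodium citrate, TCEP, EDTA, CHAPS buffer. Ac-LRSR-AMC added from 50 µM (Km) or […] working stocks; 90 min at room temperature, AMC fluorescence (ex 342/em 441 nm); IC50 from % inhibition curves.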
`Cn1nc(-c2cccc3nccn23)c(C(F)(F)F)c1C(=O)Nc1ccnc(C2CC2)c1` [Compound I-227, N-(2-cyclopropylpyridin-4-yl)-3-(imidazo[1,2-a]pyridin-5-yl)-1-methyl-4-(trifluoromethyl)-1H-pyrazole-5-carboxamide] showed an IC50 of 2500 to 10000 nM.

The compound `Cn1nc(-c2ccccc2)c(C(F)(F)F)c1C(=O)Nc1ccc(C(=O)N2CC(O)C2)c(Cl)c1` [Compound I-150] returned an IC50 of 2500 to 10000 nM.

`Cn1nc(-c2ccnc3ccsc23)c(C(F)(F)F)c1C(=O)Nc1ccnc(C(F)(F)F)c1` [Compound I-66]: the IC50 lay in the range of 500 to 2500 nM.

With `[2H]C([2H])([2H])n1nc(C(=O)Nc2cnc(-n3nccn3)c(Cl)c2)c(C(F)(F)F)c1-c1ccccc1` [Compound I-166], the IC50 is less than 500 nM.

Compound `COCCn1cc(-c2nn(C)c(C(=O)Nc3ccnc(C(F)(F)F)c3)c2C(F)(F)F)c2ccncc21` [Compound I-108] yielded an IC50 of more than 10000 nM.

Turning to `Cn1nc(-c2cccc3ncnn23)c(C(F)(F)F)c1C(=O)Nc1ccnc(C(F)(F)F)c1` [Compound I-162, 3-([1,2,4]triazolo[1,5-a]pyridin-5-yl)-1-methyl-4-(trifluoromethyl)-N-(2-(trifluoromethyl)pyridin-4-yl)-1H-pyrazole-5-carboxamide], the IC50 was 500 to 2500 nM.

Compound `COc1nc2cccc(-c3nn(C)c(C(=O)Nc4cnc(-n5nccn5)c(Cl)c4)c3C(F)(F)F)c2s1` [Compound I-294] came in with an IC50 of less than 500 nM.

The compound `Cn1nc(-c2cccc3ccoc23)c(C(F)(F)F)c1C(=O)Nc1cnc(-n2nccn2)c(C(F)F)c1` [Compound I-128] showed an IC50 of less than 500 nM.

`Cn1nc(-c2cccc3ncsc23)c(C(F)(F)F)c1C(=O)Nc1cnc(-n2nccn2)c(Cl)c1` [Compound I-126] showed an IC50 of less than 500 nM.

`Cn1nc(-c2cccc3c2ccn3C)c(C(F)(F)F)c1C(=O)Nc1ccnc(C(F)(F)F)c1` [Compound I-56] returned an IC50 of 500 to 2500 nM.

`Cn1cc(-c2nn(C)c(C(=O)Nc3ccnc(C(F)(F)F)c3)c2C(F)(F)F)c(C2CC2)n1` [Compound I-103] showed an IC50 of 2500 to 10000 nM.

Consider `Cn1nc(-c2cccc3nccnc23)c(C(F)(F)F)c1C(=O)Nc1ccnc(C(F)(F)F)c1` [Compound I-21], for which the IC50 was 500 to 2500 nM.

Consider `COc1cccc(OC)c1-c1nn(C)c(C(=O)Nc2ccnc(C(F)(F)F)c2)c1C(F)(F)F` [Compound I-20], for which the IC50 lay in the range of 500 to 2500 nM.

Compound `Cn1nc(-c2ccccc2)c(C(F)(F)F)c1C(=O)Nc1ccnc(C(F)(F)F)c1` [Compound I-147, 1-methyl-3-phenyl-4-(trifluoromethyl)-N-(2-(trifluoromethyl)pyridin-4-yl)-1H-pyrazole-5-carboxamide] gave an IC50 of less than 500 nM.

`COCCn1nc(C(=O)Nc2cnc(-n3nccn3)c(Cl)c2)c(C(F)(F)F)c1-c1ccccc1` [Compound I-173] had an IC50 of more than 10000 nM.

For `Cn1nc(-c2cccc3nncn23)c(C(F)(F)F)c1C(=O)Nc1ccnc(C(F)(F)F)c1` [Compound I-118], the IC50 lay within 2500 to 10000 nM.

On to `Cn1nc(-c2ccccc2Cl)c(C(F)(F)F)c1C(=O)Nc1ccnc(C(F)(F)F)c1` [Compound I-59], for which the IC50 is less than 500 nM.

As for `Cn1nc(-c2cccc3c2CCNC3)c(C(F)(F)F)c1C(=O)Nc1ccnc(C(F)(F)F)c1` [Compound I-197], the IC50 is more than 10000 nM.

Compound `Cn1nc(-c2cccc3c(=O)[nH]ccc23)c(C(F)(F)F)c1C(=O)Nc1cnc(-n2nccn2)c(C(F)F)c1` [Compound I-131] displayed an IC50 of less than 500 nM.

`Cn1nc(-c2cccc3c2CCNC3=O)c(C(F)(F)F)c1C(=O)Nc1ccnc(C(F)(F)F)c1` [Compound I-3]: the IC50 lay within 2500 to 10000 nM.

Regarding `Cn1nc(-c2cccc3ocnc23)c(C(F)(F)F)c1C(=O)Nc1ccnc(C(F)(F)F)c1` [Compound I-9], the IC50 is less than 500 nM.

As for `Cn1nc(-c2cc(O)ccc2Cl)c(C(F)(F)F)c1C(=O)Nc1ccnc(C(F)(F)F)c1` [Compound I-75], the IC50 lay in the range of 500 to 2500 nM.

In turn, `COCCn1nc(-c2ccccc2)c(C(F)(F)F)c1C(=O)Nc1cnc(-n2nccn2)c(C#N)c1` [Compound I-174] gave an IC50 of 500 to 2500 nM.

`Cn1nc(-c2c[nH]c3ncncc23)c(C(F)(F)F)c1C(=O)Nc1ccnc(C(F)(F)F)c1` [Compound I-202, 1-methyl-3-(7H-pyrrolo[2,3-d]pyrimidin-5-yl)-4-(trifluoromethyl)-N-(2-(trifluoromethyl)pyridin-4-yl)-1H-pyrazole-5-carboxamide] yielded an IC50 of more than 10000 nM.

Consider `Cn1nc(-c2cccc(Cl)c2Cl)c(C(F)(F)F)c1C(=O)Nc1ccnc(C(F)(F)F)c1` [Compound I-89], for which the IC50 was 500 to 2500 nM.

`Cn1nc(-c2cccc3ncccc23)c(C(F)(F)F)c1C(=O)Nc1ccc(C(=O)N2CC(O)C2)c(Cl)c1` [Compound I-240]: the IC50 lay in the range of 2500 to 10000 nM.

The compound `CN(C)CCn1nc(-c2ccccc2)c(C(F)(F)F)c1C(=O)Nc1cnc(-n2nccn2)c(C#N)c1` [Compound I-175] displayed a concentration for half-maximal inhibition (IC50) of 2500 to 10000 nM.

For the compound `CN(C)CCn1nc(-c2ccccc2)c(C(F)(F)F)c1C(=O)Nc1cnc(-n2nccn2)c(Cl)c1` [Compound I-171, N-(5-chloro-6-(2H-1,2,3-triazol-2-yl)pyridin-3-yl)-1-(2-(dimethylamino)ethyl)-3-phenyl-4-(trifluoromethyl)-1H-pyrazole-5-carboxamide], the IC50 fell in the range of 500 to 2500 nM.

In turn, `Cn1nc(-c2cccc3c2OCCO3)c(C(F)(F)F)c1C(=O)Nc1ccnc(C(F)(F)F)c1` [Compound I-44] had an IC50 of 500 to 2500 nM.

In turn, `O=C(Nc1cnc(-n2nccn2)c(Cl)c1)c1nn(C2CC2)c(-c2ccccc2)c1C(F)(F)F` [Compound I-191] came in with an IC50 of 500 to 2500 nM.

The compound `Cn1nc(OCc2ccccc2)c(C(F)(F)F)c1C(=O)Nc1ccnc(C(F)(F)F)c1` [Compound I-130] returned an IC50 of 500 to 2500 nM.

As for `Cc1cc(-c2nn(C)c(C(=O)Nc3ccnc(C(F)(F)F)c3)c2C(F)(F)F)n2ccnc2c1` [Compound I-228], the IC50 is more than 10000 nM.

Take `CN(C)c1nc2cccc(-c3nn(C)c(C(=O)Nc4ccnc(C(F)(F)F)c4)c3C(F)(F)F)c2s1` [Compound I-292]: the IC50 is more than 10000 nM.

`O=C(Nc1cnc(-n2nccn2)c(Cl)c1)c1c(C(F)(F)F)c(-c2ccccc2)nn1CCO` [Compound I-211, N-(5-chloro-6-(2H-1,2,3-triazol-2-yl)pyridin-3-yl)-1-(2-hydroxyethyl)-3-phenyl-4-(trifluoromethyl)-1H-pyrazole-5-carboxamide] displayed an IC50 of 2500 to 10000 nM.

`Cn1nc(-c2csc3cnccc23)c(C(F)(F)F)c1C(=O)Nc1ccnc(C(F)(F)F)c1` [Compound I-1, 1-methyl-3-(thieno[2,3-c]pyridin-3-yl)-4-(trifluoromethyl)-N-(2-(trifluoromethyl)pyridin-4-yl)-1H-pyrazole-5-carboxamide] came in with a 50% inhibitory concentration (IC50) of less than 500 nM.

`Cn1nc(-c2cncc3ccn(C)c23)c(C(F)(F)F)c1C(=O)Nc1ccnc(C(F)(F)F)c1` [Compound I-114] registered an IC50 of 500 to 2500 nM.

`CN(c1ccccc1)c1nn(C)c(C(=O)Nc2ccnc(C(F)(F)F)c2)c1C(F)(F)F` [Compound I-209] showed an IC50 of 500 to 2500 nM.

In the case of `Cc1ncccc1-c1nn(C)c(C(=O)Nc2ccnc(C(F)(F)F)c2)c1C(F)(F)F` [Compound I-79], the IC50 lay within 2500 to 10000 nM.

For `Cn1nc(-c2ccccc2)c(C(F)(F)F)c1C(=O)Nc1cnc(-n2nccn2)c(C#N)c1` [Compound I-153], the IC50 was less than 500 nM.

As for `Cn1nc(-c2ccc(=O)n(C)c2)c(C(F)(F)F)c1C(=O)Nc1ccnc(C(F)(F)F)c1` [Compound I-8], the IC50 lay in the range of 2500 to 10000 nM.

With `Cn1nc(-c2cccc3ncn(C)c23)c(C(F)(F)F)c1NC(=O)c1ccnc(C(F)(F)F)c1` [Compound I-221, N-(1-methyl-3-(1-methyl-1H-benzo[d]imidazol-7-yl)-4-(trifluoromethyl)-1H-pyrazol-5-yl)-2-(trifluoromethyl)isonicotinamide], the IC50 lay within 2500 to 10000 nM.

On to `COc1ccncc1-c1nn(C)c(C(=O)Nc2ccnc(C(F)(F)F)c2)c1C(F)(F)F` [Compound I-19], for which the IC50 was 500 to 2500 nM.

`Cn1nc(-c2cccc(S(C)(=O)=O)c2)c(C(F)(F)F)c1C(=O)Nc1ccnc(C(F)(F)F)c1` [Compound I-82] registered an IC50 of 2500 to 10000 nM.

Compound `Cn1nc2c(c1C(=O)Nc1cnc(-n3nccn3)c(Cl)c1)CCOc1ccccc1-2` [Compound I-256] displayed an IC50 of more than 10000 nM.

In turn, `O=C(Nc1cnc(-n2nccn2)c(Cl)c1)c1c(C(F)(F)F)c(-c2ccccc2)nn1C(F)F` [Compound I-179, N-(5-chloro-6-(2H-1,2,3-triazol-2-yl)pyridin-3-yl)-1-(difluoromethyl)-3-phenyl-4-(trifluoromethyl)-1H-pyrazole-5-carboxamide] registered an IC50 of less than 500 nM.
